Test results: patent US11180474B2 (BRISTOL-MYERS SQUIBB COMPANY, priority 2016, dated 2021)
pIC50: −log10 of the molar value.

Tests used:
[1] = target: T1, human TLR7 (Homo sapiens, UniProt Q9NYK1); assay: TLR7 inhibition reporter assay (HEK-Blue cells, SEAP reporter, gardiquimod stimulation); format: cell-based; settings: HEK-Blue cells overexpressing human TLR7, gardiquimod 7.5 μM
T1 construct: host or cells: HEK-Blue cells
T1 sequence (Q9NYK1 27-1049): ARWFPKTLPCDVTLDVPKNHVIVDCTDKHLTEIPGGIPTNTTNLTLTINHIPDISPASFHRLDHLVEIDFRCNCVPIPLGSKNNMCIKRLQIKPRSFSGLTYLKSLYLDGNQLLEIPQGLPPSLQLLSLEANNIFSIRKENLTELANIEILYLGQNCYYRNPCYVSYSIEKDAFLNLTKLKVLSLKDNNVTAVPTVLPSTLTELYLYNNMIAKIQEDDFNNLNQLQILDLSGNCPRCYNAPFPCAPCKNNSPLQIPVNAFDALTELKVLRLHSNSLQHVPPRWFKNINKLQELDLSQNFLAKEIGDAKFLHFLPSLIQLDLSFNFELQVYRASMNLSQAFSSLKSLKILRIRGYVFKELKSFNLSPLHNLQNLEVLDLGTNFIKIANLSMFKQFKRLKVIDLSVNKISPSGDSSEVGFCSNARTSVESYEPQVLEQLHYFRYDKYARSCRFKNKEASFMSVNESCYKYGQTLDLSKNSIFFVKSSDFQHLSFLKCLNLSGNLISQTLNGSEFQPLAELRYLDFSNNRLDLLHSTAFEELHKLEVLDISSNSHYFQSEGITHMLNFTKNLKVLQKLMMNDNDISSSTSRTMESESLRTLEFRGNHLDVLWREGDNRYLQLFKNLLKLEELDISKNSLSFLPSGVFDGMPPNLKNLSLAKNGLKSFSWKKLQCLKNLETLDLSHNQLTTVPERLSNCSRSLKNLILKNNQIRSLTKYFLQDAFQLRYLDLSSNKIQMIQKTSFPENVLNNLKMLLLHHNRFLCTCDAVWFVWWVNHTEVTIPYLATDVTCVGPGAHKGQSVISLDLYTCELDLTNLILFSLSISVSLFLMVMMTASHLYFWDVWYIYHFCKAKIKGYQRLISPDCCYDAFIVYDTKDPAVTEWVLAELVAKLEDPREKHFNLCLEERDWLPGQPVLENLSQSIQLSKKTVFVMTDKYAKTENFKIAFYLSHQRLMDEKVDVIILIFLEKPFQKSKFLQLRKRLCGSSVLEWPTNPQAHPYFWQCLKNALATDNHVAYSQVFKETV
Method in brief: (§1)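 In this cell reporter format, test compounds at 0.05 nM-50 μM final incubate 22 h with seeded cells (TLR7 15000, TLR8 20,000 per well). SEAP read-out by HEK-Blue Detection medium yields % inhibition relative to agonist/DMSO and known-inhibitor wells.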

[2] = target: T2, human TLR8 (Homo sapiens, UniProt Q9NR97); assay: TLR8 inhibition reporter assay (HEK-Blue cells, SEAP reporter, R848 stimulation); format: cell-based; settings: HEK-Blue cells overexpressing human TLR8, R848 15.9 μM
T2 construct: host or cells: HEK-Blue cells
T2 sequence (Q9NR97 27-1041): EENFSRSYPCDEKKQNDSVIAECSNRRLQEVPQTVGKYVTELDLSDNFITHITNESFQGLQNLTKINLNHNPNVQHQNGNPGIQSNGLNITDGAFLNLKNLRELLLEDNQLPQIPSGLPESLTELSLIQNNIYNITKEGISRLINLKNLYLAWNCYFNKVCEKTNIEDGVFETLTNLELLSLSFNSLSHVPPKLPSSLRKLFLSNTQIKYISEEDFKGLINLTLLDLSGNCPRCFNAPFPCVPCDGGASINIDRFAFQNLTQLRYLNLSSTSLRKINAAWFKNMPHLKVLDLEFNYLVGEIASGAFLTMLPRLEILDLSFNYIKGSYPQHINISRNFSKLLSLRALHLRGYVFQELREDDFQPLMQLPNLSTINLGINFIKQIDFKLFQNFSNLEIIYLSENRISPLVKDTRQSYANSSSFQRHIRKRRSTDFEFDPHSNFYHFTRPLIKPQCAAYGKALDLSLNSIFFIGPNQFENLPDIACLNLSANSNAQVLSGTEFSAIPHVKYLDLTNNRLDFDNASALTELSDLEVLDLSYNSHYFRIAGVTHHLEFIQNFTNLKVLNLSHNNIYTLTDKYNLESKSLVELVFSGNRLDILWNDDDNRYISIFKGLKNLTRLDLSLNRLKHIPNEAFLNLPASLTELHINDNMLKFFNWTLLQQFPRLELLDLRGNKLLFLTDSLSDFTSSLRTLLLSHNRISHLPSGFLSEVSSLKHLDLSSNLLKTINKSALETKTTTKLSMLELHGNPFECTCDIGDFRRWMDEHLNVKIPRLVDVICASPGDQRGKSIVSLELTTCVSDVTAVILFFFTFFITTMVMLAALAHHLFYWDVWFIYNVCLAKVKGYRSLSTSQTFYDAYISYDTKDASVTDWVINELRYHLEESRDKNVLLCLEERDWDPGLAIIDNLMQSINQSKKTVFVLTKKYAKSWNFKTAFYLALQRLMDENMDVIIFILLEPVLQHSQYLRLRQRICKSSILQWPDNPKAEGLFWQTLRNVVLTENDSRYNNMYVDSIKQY
Method in brief: as §1

| Structure (SMILES) | pIC50 [1] | pIC50 [2] |
| --- | --- | --- |
| COc1ccc(-c2[nH]c3ccc(C4CCN(C5CCCN(C6CCCC6)CC5)CC4)cc3c2C)cc1OC (stereo not shown) [Example 93, 5-(1-(1-cyclopentylazepan-4-yl)piperidin-4-yl)-2-(3,4-dimethoxyphenyl)-3-methyl-1H-indole] | 6.04 | 6.52 |
| COc1ccc(-c2[nH]c3ccc(C4CCN(C5CCCN(CC6CC6)CC5)CC4)cc3c2C)cc1OC (stereo not shown) [Example 94, 5-(1-(1-(cyclopropylmethyl)azepan-4-yl)piperidin-4-yl)-2-(3,4-dimethoxyphenyl)-3-methyl-1H-indole] | 5.75 | 6.55 |
| COc1ccc(-c2[nH]c3ccc(C4CCN(C5CCCN(CC(C)C)CC5)CC4)cc3c2C)cc1OC (stereo not shown) [Example 95, 2-(3,4-dimethoxyphenyl)-5-(1-(1-isobutylazepan-4-yl)piperidin-4-yl)-3-methyl-1H-indole] | 6.09 | 6.71 |
| CCN1CCCC(N2CCC(c3ccc4[nH]c(-c5ccc(OC)c(OC)c5)c(C)c4c3)CC2)CC1 (stereo not shown) [Example 97, 2-(3,4-dimethoxyphenyl)-5-(1-(1-ethylazepan-4-yl)piperidin-4-yl)-3-methyl-1H-indole] | 6.03 | 6.71 |
| COc1ccc(-c2[nH]c3ccc(C4CCN(C(=O)CNCCC(C)O)CC4)cc3c2C)cc1OC (stereo not shown) [Example 406, 1-(4-(2-(3,4-dimethoxyphenyl)-3-methyl-1H-indol-5-yl)piperidin-1-yl)-2-((3-hydroxybutyl)amino)ethan-1-one] | 5.93 | 5.69 |
| COc1ccc(-c2[nH]c3ccc(C4CCN(C(=O)CN5CCC(N(C)C)CC5)CC4)cc3c2C)cc1OC [Example 407, 1-(4-(2-(3,4-dimethoxyphenyl)-3-methyl-1H-indol-5-yl)piperidin-1-yl)-2-(4-(dimethylamino)piperidin-1-yl)ethan-1-one] | 4.91 | ≤ 4.30 |
| COc1ccc(-c2[nH]c3ccc(C4CCN(C(=O)CN(C)CCO)CC4)cc3c2C)cc1OC [Example 408, 1-(4-(2-(3,4-dimethoxyphenyl)-3-methyl-1H-indol-5-yl)piperidin-1-yl)-2-((2-hydroxyethyl)(methyl)amino)ethan-1-one] | 6.05 | 5.32 |
| COc1ccc(-c2[nH]c3ccc(C4CCN(C(=O)CN5CCN(C)CC5)CC4)cc3c2C)cc1OC [Example 409, 1-(4-(2-(3,4-dimethoxyphenyl)-3-methyl-1H-indol-5-yl)piperidin-1-yl)-2-(4-methylpiperazin-1-yl)ethan-1-one] | 5.99 | 4.95 |
| COc1ccc(-c2[nH]c3ccc(C4CCN(C(=O)CN5CCCN(C)CC5)CC4)cc3c2C)cc1OC [Example 410, 1-(4-(2-(3,4-dimethoxyphenyl)-3-methyl-1H-indol-5-yl)piperidin-1-yl)-2-(4-methyl-1,4-diazepan-1-yl)ethan-1-one] | 5.41 | 4.67 |
| C#CCCCCC(=O)NCCN1CCC(c2ccc3[nH]c(-c4ccc(OC)c(OC)c4)c(C(C)C)c3c2)CC1 [Example 411, N-(2-(4-(2-(3,4-dimethoxyphenyl)-3-isopropyl-1H-indol-5-yl)piperidin-1-yl)ethyl)hept-6-ynamide] | 7.20 | 7.44 |
| COc1ccc(-c2[nH]c3ccc(C4CCN(C5CCN(C(C)C)CC5)CC4)cc3c2CC(F)(F)F)cc1OC [Example 412, 2-(3,4-dimethoxyphenyl)-5-(1′-isopropyl-[1,4′-bipiperidin]-4-yl)-3-(2,2,2-trifluoroethyl)-1H-indole] | 7.72 | 7.68 |
| CNCCN1CCC(c2ccc3[nH]c(-c4ccc(OC)c(OC)c4)c(CC(F)(F)F)c3c2)CC1 [Example 413, 2-(4-(2-(3,4-dimethoxyphenyl)-3-(2,2,2-trifluoroethyl)-1H-indol-5-yl)piperidin-1-yl)-N-methylethanamine] | 7.08 | 7.55 |
| CNCC(=O)N1CCC(c2ccc3[nH]c(-c4ccc(OC)c(OC)c4)c(CC(F)(F)F)c3c2)CC1 [Example 414, 1-(4-(2-(3,4-dimethoxyphenyl)-3-(2,2,2-trifluoroethyl)-1H-indol-5-yl)piperidin-1-yl)-2-(methylamino)ethanone] | 7.24 | 7.07 |
| CCN(CC)C(=O)C1CCCN(CC(=O)N2CCC(c3ccc4[nH]c(-c5ccc(OC)c(OC)c5)c(CC(F)(F)F)c4c3)CC2)C1 (stereo not shown) [Example 418, 1-(2-(4-(2-(3,4-dimethoxyphenyl)-3-(2,2,2-trifluoroethyl)-1H-indol-5-yl)piperidin-1-yl)-2-oxoethyl)-N,N-diethylpiperidine-3-carboxamide] | 7.10 | 7.11 |
| COc1ccc(-c2[nH]c3ccc(C4CCN(C(=O)CN5CCCC(C(=O)N(C)C)C5)CC4)cc3c2CC(F)(F)F)cc1OC (stereo not shown) [Example 419, 1-(2-(4-(2-(3,4-dimethoxyphenyl)-3-(2,2,2-trifluoroethyl)-1H-indol-5-yl)piperidin-1-yl)-2-oxoethyl)-N,N-dimethylpiperidine-3-carboxamide] | 7.51 | 7.33 |
| CCN(CC)C(=O)C1CCCN(CC(=O)N2CCC(c3ccc4[nH]c(-c5ccc(OC)c(OC)c5)c(CC(F)(F)F)c4c3)CC2)C1 (stereo not shown) [Example 420, 1-(2-(4-(2-(3,4-dimethoxyphenyl)-3-(2,2,2-trifluoroethyl)-1H-indol-5-yl)piperidin-1-yl)-2-oxoethyl)-N,N-diethylpiperidine-3-carboxamide] | 7.18 | 7.60 |
| CCN(CC)C(=O)C1CCCN(CC(=O)N2CCC(c3ccc4[nH]c(-c5ccc(OC)c(OC)c5)c(CC(F)(F)F)c4c3)CC2)C1 (stereo not shown) [Example 421, 1-(2-(4-(2-(3,4-dimethoxyphenyl)-3-(2,2,2-trifluoroethyl)-1H-indol-5-yl)piperidin-1-yl)-2-oxoethyl)-N,N-diethylpiperidine-3-carboxamide] | 6.94 | 7.15 |
